Assay results from PubChem BioAssay (NCI).
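Test compounds were applied to cells in 96-well plates for 48 hours at 5 doses. The concentration for 50% growth inhibition is given as GI50. TGI marks complete inhibition of growth.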

Columns and labels:
Test in all cases: DTP human tumour cell line panel, 48 h
[1] = test system: A549 NSCLC
[2] = test system: MALME-3M melanoma
[3] = test system: MOLT-4 leukemia
[4] = test system: NCI-H226 lung
[5] = test system: RXF 393 renal
[6] = test system: SF-295 CNS
[7] = test system: SW-620 colon
[8] = test system: TK-10 renal
[9] = test system: SR leukemia
[10] = test system: PC-3 prostate

Question: Which results are given for `C[C@@H](NC1CCC[C@@H]1O)c1ccccc1` (stereo partly drawn)?
Answer: TGI [1]: > 100 µM; TGI [2]: > 100 µM; TGI [3]: > 100 µM; TGI [4]: > 100 µM; TGI [5]: > 100 µM; TGI [6]: > 100 µM; TGI [7]: > 100 µM; TGI [8]: > 100 µM

Question: Which TGI [1] does the source give for `CCCC1C(=O)C(CC)Cc2c(OC)ccc(OC)c21` (stereo not drawn) here?
Answer: > 100 µM

Question: And the TGI [2]?
Answer: > 100 µM

Question: And the TGI [3]?
Answer: > 100 µM

Question: What about the TGI [4] of the same compound?
Answer: > 100 µM

Question: And the TGI [5]?
Answer: > 100 µM

Question: What about the TGI [6] of the same compound?
Answer: > 100 µM

Question: What about the TGI [7] of the same compound?
Answer: > 100 µM

Question: And the TGI [8]?
Answer: > 100 µM

Question: `C[Si](C)(C)/C=C\CCCN1C(=O)CCC1=O` was tested. Which TGI [1] did it give?
Answer: > 100 µM

Question: What about the TGI [2] of the same compound?
Answer: > 100 µM

Question: And the TGI [3]?
Answer: > 100 µM

Question: What about the TGI [6] of the same compound?
Answer: > 100 µM

Question: What about the TGI [9] of the same compound?
Answer: > 100 µM

Question: And the TGI [7]?
Answer: > 100 µM

Question: What about the TGI [8] of the same compound?
Answer: > 100 µM

Question: What does the source list for `O=C1/C(=C/c2ccccc2Br)COc2ccc(O)c(O)c21`?
Answer: GI50 [1]: 2.17 µM; TGI [1]: 10.2 µM; GI50 [2]: 1.28 µM; TGI [2]: 3.27 µM; GI50 [3]: 0.504 µM; TGI [3]: 53.4 µM; GI50 [4]: 2.75 µM; TGI [4]: 8.19 µM; GI50 [10]: 1.04 µM; TGI [10]: 9.89 µM; GI50 [5]: 1.66 µM; TGI [5]: 3.22 µM; GI50 [6]: 2.96 µM; TGI [6]: 8.04 µM; GI50 [7]: 1.34 µM; TGI [7]: 4.44 µM; GI50 [8]: 2.01 µM; TGI [8]: 4.09 µM

Question: With `CC(=O)NC1C(OCc2ccccc2)OC(COC(=O)CCCCCNc2ccc([N+](=O)[O-])c3[nH]c4ccc(O)cc4c(=O)c23)C(O)C1OC(C)C(=O)N[C@@H](C)C(=O)N[C@H](CCC(=O)OCc1ccccc1)C(N)=O` (stereo partly drawn) as the compound, how does the TGI [1] read?
Answer: 6.92 µM

Question: And the TGI [2]?
Answer: 2.87 µM

Question: What about the TGI [3] of the same compound?
Answer: 5.56 µM

Question: And the TGI [4]?
Answer: 12.3 µM

Question: And the TGI [5]?
Answer: 3.26 µM

Question: And the TGI [6]?
Answer: 17 µM

Question: What about the TGI [9] of the same compound?
Answer: 0.657 µM

Question: What about the TGI [7] of the same compound?
Answer: 4.42 µM

Question: Which results are given for `Cc1ccc2c(N/N=C\c3ccco3)cc(C)nc2n1`?
Answer: GI50 [1]: 4.37 µM; TGI [1]: 18.5 µM; GI50 [3]: 2.67 µM; TGI [3]: 8.83 µM; GI50 [4]: 20.1 µM; TGI [4]: 60.3 µM; GI50 [10]: 6.26 µM; TGI [10]: 22.5 µM; GI50 [5]: 4.53 µM; TGI [5]: 17.1 µM; GI50 [6]: 3.31 µM; TGI [6]: 14.3 µM; GI50 [9]: 2.15 µM; TGI [9]: 6.07 µM; GI50 [7]: 3.01 µM; TGI [7]: 11.6 µM

Question: For `NCCCn1c2c(c3cc4c(cc3c1=O)OCO4)C(=O)c1ccccc1-2`, which GI50 [3] is on record?
Answer: 0.0223 µM

Question: And the TGI [3]?
Answer: 0.0742 µM

Question: And the GI50 [4]?
Answer: 4.09 µM

Question: What about the TGI [4] of the same compound?
Answer: 24.8 µM

Question: And the GI50 [10]?
Answer: 0.134 µM

Question: What about the TGI [10] of the same compound?
Answer: 0.6 µM

Question: And the GI50 [6]?
Answer: 0.483 µM

Question: What about the TGI [6] of the same compound?
Answer: 1.48 µM

Question: And the GI50 [8]?
Answer: 1.98 µM

Question: And the TGI [8]?
Answer: 5.75 µM

Question: How did the TGI [1] turn out when `O=S1c2ccccc2N=C(c2ccc(Cl)cc2)CC1c1cccs1` (stereo not drawn) was run?
Answer: > 100 µM

Question: What about the TGI [2] of the same compound?
Answer: > 100 µM

Question: And the TGI [3]?
Answer: 98.7 µM

Question: And the TGI [4]?
Answer: > 100 µM

Question: And the TGI [5]?
Answer: 47.6 µM

Question: And the TGI [6]?
Answer: 39.5 µM

Question: What about the TGI [9] of the same compound?
Answer: 43.1 µM

Question: And the TGI [7]?
Answer: 27.5 µM

Question: What about the TGI [8] of the same compound?
Answer: > 100 µM

Question: What does the source list for `CC1=C(/C=C/C2=CC(=C\C(=O)O)/CC(C3=C(C)CCCC3(C)C)C2)C(C)(C)CCC1` (stereo not drawn)?
Answer: TGI [1]: 19.6 µM; TGI [2]: 34.1 µM; TGI [3]: 21.7 µM; TGI [4]: 23.9 µM; TGI [5]: 22.6 µM; TGI [6]: 22 µM; TGI [9]: 24.2 µM; TGI [7]: 29.1 µM; TGI [8]: 27.3 µM
